Here are results for ten compounds from patent US12649750B2, “Macrocyclic compounds, compositions, and methods of using thereof” (Sionna Therapeutics Inc., priority 2022, dated 2026).

One test concerns the target T1, NBD1 (Homo sapiens, UniProt P13569).
T1 construct: Purified recombinant NBD1 was produced using previously described methods; made in house
Briefly: Aggregation analysis using differential static light scattering (DSLS), thermal stability of NBD1 (ΔTagg). The class given is binding. Conditions: ΔTagg versus DMSO control, NBD1 0.2 mg/ml. In short, it runs like this: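 Read-out is ΔTagg: the aggregation temperature, taken at the inflection of the light-scattering curve, less the average of DMSO control wells. Recombinant NBD1 (0.2 mg/ml, pH7.6 buffer containing 2 mM ATP) with test compound was heated at 1° C. per minute up to 70° C.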

A further test addresses T2, CFTR (Homo sapiens, UniProt P13569, DEL508-508).
T2 construct: Primary human bronchial epithelial cells from a ΔF508 homozygous CF donor; host or cells: primary human bronchial epithelial cells (CF-HBE), ΔF508 homozygous donor
Put plainly: TECC24 AUC fold over DMSO @10 μM, CFTR-mediated transepithelial chloride transport in CF-HBE cells. The class given is cell-based. The conditions noted are these: test agent AUC divided by DMSO vehicle AUC, primary CF-HBE cells, ΔF508 homozygous donor, 48 hours incubation. Here is the method: Example 387. TECC24 AUC Fold Over DMSO @10 μM
The effects of a test agent on CFTR-mediated transepithelial chloride transport is measured using TECC24 recording analysis. Test agents are solubilized in DMSO. Solubilized test agents are mixed with incubation medium containing DMEM/F12, Ultroser G (2%; Crescent Chemical, catalog #67042), Hyclone Fetal Clone II (2%; GE Healthcare, catalog #SH30066.02), bovine brain extract (0.25%; Lonza, catalog #CC-4098), insulin (2.5 μg/mL), IL-13 (10 ng/mL), hydrocortisone (20 nM), transferrin (2.5 μg/mL), triiodothyronine (500 nM), ethanolamine (250 nM), epinephrine (1.5 μM), phosphoethanolamine (250 nM), and retinoic acid (10 nM). Primary human bronchial epithelial cells from a ΔF508 homozygous CF donor (CF-HBE cells; from University of North Carolina Cystic Fibrosis Tissue Procurement Center), grown on Transwell HTS 24-well cell culture inserts (Costar, catalog #3378), are exposed to test agents or controls dissolved in incubation medium. The CF-HBE cells are cultured at 36.5° C. for 48 hours before TECC24 recordings are performed in the presence or absence of test agent, a positive control or vehicle (DMSO).
Following incubation, the transwell cell culture inserts containing the test agent or control-treated CF-HBE cells are loaded onto a TECC24 apparatus (TECC v7 or MTECC v2; EP Design) to record the transepithelial voltage (VT) and resistance (TEER) using 4 AgCl electrodes per well configured in current-clamp mode. The apical and basolateral bath solutions both contain (in mM) 140 NaCl, 5 KCl, 2 CaCl2, 1 MgCl2, 10 Hepes, and 10 glucose (adjusted to pH 7.4 with NaOH). To inhibit basal Na+ absorption, the ENaC inhibitor benzamil (10 μM) is added to the bath. Then, the adenylate cyclase activator, forskolin (10 μM), is added to the bath to activate CFTR. The forskolin-stimulated Cl— transport is halted by addition of CFTR inhibitor-172 (20 μM) to the bath at the end of the experiment to confirm specificity. VT and TEER recordings are digitally acquired at routine intervals using TECC or MTECC software (EP Design). VT and TEER are transformed into equivalent transepithelial Cl— current (IEQ), and the Area Under the Curve (AUC) of the IEQ time course between forskolin and CFTR inhibitor-172 addition is generated using Excel (Microsoft). Efficacy is expressed as the ratio of the test agent AUC divided by vehicle AUC. EC50s based on AUC are generated using the non-linear regression log(agonist) vs. response function in Prism software (Graphpad) with HillSlope fixed=1.
If a test agent increases the AUC of the forskolin-stimulated IEQ relative to vehicle in CF-HBE cells, and this increase is inhibited by CFTR inhibitor-172, then the test agent is considered a CFTR corrector. TECC assay efficacy is expressed as the ratio of the test agent AUC divided by DMSO vehicle AUC. As set forth in Table 2 below, a TECC value less than 12 is marked “A”; a value between 12-20 is marked “B”; a value between 20 and 80 is marked “C”. […]

T2 sequence (P13569 with tags, fused parts or gaps DEL508-508): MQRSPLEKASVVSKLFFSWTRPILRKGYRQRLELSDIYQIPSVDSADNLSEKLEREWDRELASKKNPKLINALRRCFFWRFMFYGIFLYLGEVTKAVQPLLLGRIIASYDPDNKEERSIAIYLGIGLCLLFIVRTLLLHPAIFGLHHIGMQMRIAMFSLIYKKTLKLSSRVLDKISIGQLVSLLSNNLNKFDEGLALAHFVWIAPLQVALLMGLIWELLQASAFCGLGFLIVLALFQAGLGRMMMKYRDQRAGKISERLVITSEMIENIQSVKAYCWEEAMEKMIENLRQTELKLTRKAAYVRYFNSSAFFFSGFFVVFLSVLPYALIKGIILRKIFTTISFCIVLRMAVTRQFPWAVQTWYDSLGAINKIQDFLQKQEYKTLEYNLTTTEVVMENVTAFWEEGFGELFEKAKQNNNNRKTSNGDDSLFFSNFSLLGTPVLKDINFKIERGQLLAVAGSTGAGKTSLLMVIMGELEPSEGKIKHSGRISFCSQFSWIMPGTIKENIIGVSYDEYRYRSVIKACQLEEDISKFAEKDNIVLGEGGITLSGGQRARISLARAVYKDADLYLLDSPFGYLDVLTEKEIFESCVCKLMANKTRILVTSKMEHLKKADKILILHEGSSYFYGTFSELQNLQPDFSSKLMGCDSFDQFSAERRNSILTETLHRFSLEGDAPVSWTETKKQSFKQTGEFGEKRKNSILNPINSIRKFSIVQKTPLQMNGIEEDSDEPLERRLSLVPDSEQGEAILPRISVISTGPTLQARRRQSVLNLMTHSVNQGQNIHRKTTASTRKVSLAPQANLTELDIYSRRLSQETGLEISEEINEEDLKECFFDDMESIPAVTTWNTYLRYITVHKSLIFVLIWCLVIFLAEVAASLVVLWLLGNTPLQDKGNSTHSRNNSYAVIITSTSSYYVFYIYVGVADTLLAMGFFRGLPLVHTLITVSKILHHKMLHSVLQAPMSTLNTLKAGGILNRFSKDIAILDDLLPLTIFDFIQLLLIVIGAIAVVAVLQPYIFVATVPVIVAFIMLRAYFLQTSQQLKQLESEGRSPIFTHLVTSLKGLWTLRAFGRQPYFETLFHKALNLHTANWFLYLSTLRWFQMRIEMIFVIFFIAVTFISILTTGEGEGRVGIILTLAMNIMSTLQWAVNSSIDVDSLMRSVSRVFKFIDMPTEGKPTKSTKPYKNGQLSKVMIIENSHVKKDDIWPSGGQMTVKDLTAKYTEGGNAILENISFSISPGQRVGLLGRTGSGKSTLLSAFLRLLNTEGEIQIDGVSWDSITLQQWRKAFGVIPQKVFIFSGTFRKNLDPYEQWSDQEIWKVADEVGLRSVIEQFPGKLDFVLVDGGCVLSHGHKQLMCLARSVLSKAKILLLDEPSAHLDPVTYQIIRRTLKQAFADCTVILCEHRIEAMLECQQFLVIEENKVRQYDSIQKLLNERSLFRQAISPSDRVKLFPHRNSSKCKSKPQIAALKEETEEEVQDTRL
T1 sequence (P13569 423-646 limits assumed): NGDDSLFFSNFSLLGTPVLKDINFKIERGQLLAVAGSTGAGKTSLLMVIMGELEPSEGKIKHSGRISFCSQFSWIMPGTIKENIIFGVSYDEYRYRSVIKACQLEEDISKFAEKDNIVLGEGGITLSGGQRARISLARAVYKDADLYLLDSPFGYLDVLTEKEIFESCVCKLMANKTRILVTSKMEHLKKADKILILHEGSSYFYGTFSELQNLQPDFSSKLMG

As to `CC(O)Cn1nc2nc1-c1cc(ccc1F)Oc1c(F)cc3[nH]ccc3c1CCS(=O)(=O)CC(C)(C)CCC[C@]2(C)c1cccc(C[C@@H](C)C(=O)O)c1` (mixture of isomers) [Compound 219, (2R)-3-[3-[(6R)-22,28-Difluoro-3-(2-hydroxypropyl)-6,10,10-trimethyl-12,12-dioxo-24-oxa-12λ6-thia-3,4,19,30-tetrazapentacyclo[23.3.1.12,5.015,23.016,20]triaconta-1(29),2(30),4,15,17,20,22,25,27-nonaen-6-yl]phenyl]-2-methyl-propanoic acid], the “DSLS 3D (100 μM ΔT)” value at NBD1 is “C (a value greater than 10 °C and less than or equal to 25 °C is marked “C”)”. Further, the “TECC (AUC, 10 μM)” value on CFTR is “C (a value between 20 and 80 is marked “C”)”.
For the compound `C[C@H](Cc1cccc(C2(C)CCCC(C)(C)CS(=O)(=O)CCc3c(c(F)cc4[nH]ccc34)Oc3ccc(F)c(c3)-c3ccn2n3)c1)C(=O)O` (mixture of isomers) [Compound 230, (2R)-3-[3-(22,28-difluoro-6,10,10-trimethyl-12,12-dioxo-24-oxa-12λ6-thia-5,19,30-triazapentacyclo[23.3.1.12,5.015,23.016,20]triaconta-1(29),2(30),3,15,17,20,22,25,27-nonaen-6-yl)phenyl]-2-methyl-propanoic Acid], on NBD1, the “DSLS 3D (100 μM ΔT)” value is “C (a value greater than 10 °C and less than or equal to 25 °C is marked “C”)”. The “TECC (AUC, 10 μM)” value at CFTR was “C (a value between 20 and 80 is marked “C”)”.
`C[C@@H](Cc1cccc([C@@]2(C)CCCC(C)(C)CS(=O)(=O)CCc3c(c(F)cc4[nH]ccc34)C(=O)c3ccnc(c3)-c3nc2nn3C)c1)C(=O)O` (mixture of isomers) [Compound 254, (2S)-2-Methyl-3-[3-[rac-(6R)-22-fluoro-3,6,10,10-tetramethyl-12,12,24-trioxo-12λ6-thia-3,4,19,28,30-pentazapentacyclo[23.3.1.12,5.015,23.016,20]triaconta-1(29),2(30),4,15,17,20,22,25,27-nonaen-6-yl]phenyl]propanoic Acid]: the “DSLS 3D (100 μM ΔT)” value at NBD1 is “C (a value greater than 10 °C and less than or equal to 25 °C is marked “C”)”. Besides, the “TECC (AUC, 10 μM)” value on CFTR is “B (a value between 12-20 is marked “B”)”.
As to `CC1(C)CCCC(c2cccc(CCC(=O)O)c2)n2ncc(C#N)c2-c2cc(ccc2F)Oc2c(F)cc3[nH]ccc3c2CCS(=O)(=O)C1` (racemic) [Compound 22A, 3-[3-(3-cyano-23,29-difluoro-11,11-dimethyl-13,13-dioxo-25-oxa-13lambda6-thia-5,6,20-triazapentacyclo[24.3.1.02,6.016,24.017,21]triaconta-1(30),2,4,16,18,21,23,26,28-nonaen-7-yl)phenyl]propanoic acid], the “DSLS 3D (100 μM ΔT)” value on NBD1 was “A (an ΔTagg value less than or equal to 5 °C is marked “A”)”. Also, on CFTR, the “TECC (AUC, 10 μM)” value is listed as “A (a TECC value less than 12 is marked “A”)”.
With `Cn1nc2nc1-c1cc(ccc1F)Oc1c(F)cc3[nH]ccc3c1CCS(=O)(=O)CC(C)(C)CCCC2(C)c1cccc(CCC(=O)O)c1` (racemic) [Compound 56, 3-[3-(22,28-Difluoro-3,6,10,10-tetramethyl-12,12-dioxo-24-oxa-12lambda6-thia-3,4,19,30-tetrazapentacyclo[23.3.1.12,5.015,23.016,20]triaconta-1(29),2(30),4,15,17,20,22,25,27-nonaen-6-yl)phenyl]propanoic acid], on NBD1, the “DSLS 3D (100 μM ΔT)” value was “C (a value greater than 10 °C and less than or equal to 25 °C is marked “C”)”. For the same compound, the “TECC (AUC, 10 μM)” value on CFTR is listed as “A (a TECC value less than 12 is marked “A”)”.
For `Cc1cn2nc1-c1cc(ccc1F)Oc1c(F)cc3[nH]ccc3c1CCS(=O)(=O)CC(C)(C)CCCC2c1cccc(CCC(=O)O)c1` (racemic) [Compound 66, 3-[3-(22,28-Difluoro-3,10,10-trimethyl-12,12-dioxo-24-oxa-12λ6-thia-5,19,30-triazapentacyclo[23.3.1.12,5.015,23.016,20]triaconta-1(29),2(30),3,15,17,20,22,25,27-nonaen-6-yl)phenyl]propanoic Acid], the “DSLS 3D (100 μM ΔT)” value at NBD1 is “C (a value greater than 10 °C and less than or equal to 25 °C is marked “C”)”. In addition, the “TECC (AUC, 10 μM)” value on CFTR is given as “B (a value between 12-20 is marked “B”)”.
In the case of `Cn1nc2nc1-c1cc(ccc1F)Oc1c(F)cc3[nH]ccc3c1CCS(=O)(=O)/C=C(\F)C(C)(C)CCC2(C)c1cccc(CCC(=O)O)c1` (racemic) [Compound 94, 3-[3-[(10Z)-10,22,28-Trifluoro-3,6,9,9-tetramethyl-12,12-dioxo-24-oxa-12lambda6-thia-3,4,19,30-tetrazapentacyclo-[23.3.1.12,5.015,23.016,20]triaconta-1(29),2(30),4,10,15,17,20,22,25,27-decaen-6-yl]phenyl]propanoic Acid], the “DSLS 3D (100 μM ΔT)” value at NBD1 is “A (an ΔTagg value less than or equal to 5 °C is marked “A”)”. Moreover, the “TECC (AUC, 10 μM)” value on CFTR is “A (a TECC value less than 12 is marked “A”)”.
With `Cn1nc2nc1-c1cc(ccc1F)Cc1c(F)cc3[nH]ccc3c1CCS(=O)(=O)CC(C)(C)CCCC2(C)c1cccc(/C=C/C(=O)O)c1` (racemic) [Compound 167, (E)-3-[3-(22,28-Difluoro-3,6,10,10-tetramethyl-12,12-dioxo-12λ6-thia-3,4,19,30-tetrazapentacyclo[23.3.1.12,5.015,23.016,20]triaconta-1(29),2(30),4,15,17,20,22,25,27-nonaen-6-yl)phenyl]prop-2-enoic Acid], at NBD1, the “DSLS 3D (100 μM ΔT)” value is “C (a value greater than 10 °C and less than or equal to 25 °C is marked “C”)”. In addition, the “TECC (AUC, 10 μM)” value at CFTR was “A (a TECC value less than 12 is marked “A”)”.
With `Cn1nc2nc1-c1cc(ccc1F)Oc1c(F)cc3[nH]ccc3c1CCS(=O)(=O)CC(C)(C)CCCC2(C)c1cccc(/C=C2\NC(=O)NC2=O)c1` (racemic) [Compound 174, (5Z)-5-[[3-(22,28-Difluoro-3,6,10,10-tetramethyl-12,12-dioxo-24-oxa-12λ6-thia-3,4,19,30-tetrazapentacyclo[23.3.1.12,5.015,23.016,20]-triaconta-1(29),2(30),4,15,17,20,22,25,27-nonaen-6-yl)phenyl]methylene]imidazolidine-2,4-dione], the “DSLS 3D (100 μM ΔT)” value on NBD1 was “C (a value greater than 10 °C and less than or equal to 25 °C is marked “C”)”. Moreover, the “TECC (AUC, 10 μM)” value at CFTR was “A (a TECC value less than 12 is marked “A”)”.
In the case of `Cn1nc2nc1-c1cc(ccn1)Oc1c(F)cc3[nH]ccc3c1CCS(=O)(=O)CC(C)(C)CCC[C@]2(C)c1cccc(CCC(=O)O)c1` (racemic) [Compound 228, 3-[3-[rac-(6R)-22-fluoro-3,6,10,10-tetramethyl-12,12-dioxo-24-oxa-12λ6-thia-3,4,19,28,30-pentazapentacyclo[23.3.1.12,5.015,23.016,20]triaconta-1(29),2(30),4,15,17,20,22,25,27-nonaen-6-yl]phenyl]propanoic acid], at NBD1, the “DSLS 3D (100 μM ΔT)” value is “C (a value greater than 10 °C and less than or equal to 25 °C is marked “C”)”. In addition, the “TECC (AUC, 10 μM)” value at CFTR was “C (a value between 20 and 80 is marked “C”)”.
